From patent US20180303809A1, “TREATMENT OF BURN PAIN BY TRPV1 MODULATORS” (Purdue Pharma L.P., priority 2013, published 2018)
Values joined by “and” are separate entries in the source; they are usually repeats but may differ in a detail not shown here. Equal entries are not always repeated.

Tests used:
Type in all cases: in vivo, rat
male Sprague-Dawley rats [1] = test: Paw pressure assay, mechanical hyperalgesia (PWT) in thermal burn pain model; settings: rat burn injury 55° C. 24 s, 30 mg/kg PO
Method: (§1) Test Animals: Each experiment used male Sprague-Dawley rats weighing between 190-260 g at the time of thermal burn injury. The rats were housed two per cage, and were allowed to acclimate to their environment for at least six days before testing began. The rats had free access to food and water at all times, except during testing and prior to oral (PO) administration of a test compound, when food was removed about 16 hours before dosing. The rats were divided into treatment groups, and one of the following compounds was administered to each group at the dose and by the route of administration indicated in Tables 5.2A to 5.2C, 5.3A and 5.3B, and 5.4A and 5.4B: ketorolac (Sigma-Aldrich, St. Louis, Mo.), AMG 517 (selective TRPV1 antagonist described in Em. Doherty et al., “Novel vanilloid receptor-1 antagonists:2. Structure-activity relationships of 4-oxopyrimidines leading to the selection of a clinical candidate,” J Med Chem 50:3515-3527 (2007).) (Purdue Pharma L. P., Cranbury, N.J.), indomethacin (Alexis Biochemicals, Farmingdale, N.Y.), gabapentin (Bosche Scientific, New Brunswick, N.J.), or (S)-3-chloro-5-(1,2-dihydroxyethyl)-N-(5-(trifluoromethyl)pyridin-2-yl)-5′,6′-dihydro-[2,4′-bipyridine]-1′(2′H)-carboxamide (Compound 1). The control groups were administered the vehicle for the compound of formula (I). The volume of administration for PO treatment was 5 ml/kg, and was the same for all treatment groups. Volume of administration for intraperitoneal (i.p.) drug administration was 2 ml/kg.
(§2) To assess the actions of a compound of formula (I) for the treatment or prevention of burn pain, a model of thermal burn pain was used. A thermal burn injury was induced under isofluorane/O2 inhalation anesthesia. To assess mechanical hyperalgesia and weight bearing, a thermal injury was produced by immersing the left hind paw into water maintained at 55° C. for 24 seconds. The left hind paw of non-injured control animals was immersed in 22° C. water for 24 seconds. To assess thermal hyperalgesia, a thermal injury was produced by immersing the left hindpaw into water maintained at 50° C. for 48 seconds; the left hind-paw of non-injured control animals was immersed in 22° C. water for 48 seconds. The animals were assessed for response to noxious mechanical stimuli by determining PWT for mechanical hyperalgesia, weight bearing difference between the injured or non-injured side, or response to noxious thermal stimuli by determining PWL for thermal hyperalgesia, all as described below, prior to drug administration (baseline), then again at 1, 3 and 5 hours after induction of burn injury.
The paw pressure assay was used to assess mechanical hyperalgesia. For this assay, hind paw withdrawal thresholds (PWT) to a noxious mechanical stimulus were determined using an analgesimeter (Model 7200, commercially available from Ugo Basile of Italy) as described in C. Stein, “Unilateral Inflammation of the Hindpaw in Rats as a Model of Prolonged Noxious Stimulation: Alterations in Behavior and Nociceptive Thresholds,” Pharmacol. Biochem. and Behavior 31:451-455 (1988). The rat's paw was placed on a small platform, and weight was applied in a graded manner up to a maximum of 250 grams. The endpoint was taken as the weight at which the paw was completely withdrawn. PWT was determined once for each rat at each time point, wherein the affected (ipsilateral; same side as the injury) rear paw was tested. […] All drug treatment groups were compared to the vehicle control group (i.e. injured, administered only the vehicle).

male Sprague-Dawley rats [2] = test: Plantar test, thermal hyperalgesia (PWL) in thermal burn pain model; settings: rat burn injury 50° C. 48 s, 30 mg/kg PO
Method: as §1, §2
The plantar test was used to assess thermal hyperalgesia. For this test, hind paw withdrawal latencies (PWL) to a noxious thermal stimulus were determined using a plantar test apparatus (commercially available from Ugo Basile of Italy) following the technique described by K. Hargreaves et al., “A New and Sensitive Method for Measuring Thermal Nociception in Cutaneous Hyperalgesia,” Pain 32(1):77-88 (1988). The maximum exposure time was set at 32 seconds to avoid tissue damage and any directed paw withdrawal from the heat source is taken as the end point. Three latencies were determined at each time point and averaged.

male Sprague-Dawley rats [3] = test: Hind limb weight bearing (incapacitance meter, % WL) in thermal burn pain model; settings: rat burn injury 55° C. 24 s, 30 mg/kg PO
Method: as §1, §2
A commercially available incapacitance meter was used to determine the weight distribution on the two hind paws of the animal (Linton Incapacitance Tester (Linton Instrumentation, Norfolk, UK)). The weight bearing difference (WBD) between the injured and non-injured hindpaw was measured. The animal was placed in the testing chamber that allows the animal to stand normally, distributing its body weight on the hind limbs for the test. Each hind paw was positioned on a separate pressure sensitive pad, which independently measures the pressure applied by each limb. The device continuously collects data after either a force threshold has been exceeded, or the investigator depresses the start pad. Rats were allowed to acclimate when placed on the apparatus, and when they were stationary, the force exerted was then continuously monitored for 3 s. The endpoint was the amount of pressure applied to each limb over time. Three readings were taken for each rat at each time point, and the average used for data analysis. WBD was expressed as “% WL”, i.e. the percentage of weight borne on the burn-injured left hind paw, using the following formula: […]
where WLP is the weight on the left hind paw and WRP is the weight on the right (untreated) hind paw. The 50% value of % WL corresponds to an equal weight distribution across both hind paws. […]

[4] = baseline (prior to drug administration)

Structure (SMILES): COc1ccc2c(c1)c(CC(=O)O)c(C)n2C(=O)c1ccc(Cl)cc1 [Indomethacin, indomethacin]
- % Decrease from Baseline (mean ± S.E.M.) of Paw Withdrawal Threshold (male Sprague-Dawley rats [1]; 1 h after administration): 51 ± 2.6 %
- % Decrease from Baseline (mean ± S.E.M.) of Paw Withdrawal Threshold (male Sprague-Dawley rats [1]; 3 h after administration): 45 ± 5.8 %
- % Decrease from Baseline (mean ± S.E.M.) of Paw Withdrawal Threshold (male Sprague-Dawley rats [1]; 5 h after administration): 58 ± 3.6%
- Paw Withdrawal Threshold (g) (mean ± S.E.M.) (male Sprague-Dawley rats [1]; 5 h after administration): 103 ± 10.2 g
- Paw Withdrawal Threshold (g) (mean ± S.E.M.) (male Sprague-Dawley rats [1]; [4]): 240 ± 7.5 g
- % Change from Baseline (mean ± S.E.M.) of Paw Withdrawal Latency (male Sprague-Dawley rats [2]; 1 h after administration): −41.5 ± 10.71%
- Paw Withdrawal Latency (sec) (mean ± S.E.M.) (male Sprague-Dawley rats [2]; 1 h after administration): 8.3 ± 0.91 s
- % Change from Baseline (mean ± S.E.M.) of Paw Withdrawal Latency (male Sprague-Dawley rats [2]; 3 h after administration): −26.1 ± 13.18%
- Paw Withdrawal Latency (sec) (mean ± S.E.M.) (male Sprague-Dawley rats [2]; 3 h after administration): 11.2 ± 0.87 s
- % Change from Baseline (mean ± S.E.M.) of Paw Withdrawal Latency (male Sprague-Dawley rats [2]; 5 h after administration): −25.5 ± 13.63%
- Paw Withdrawal Latency (sec) (mean ± S.E.M.) (male Sprague-Dawley rats [2]; 5 h after administration): 11.4 ± 0.51 s
- Paw Withdrawal Latency (sec) (mean ± S.E.M.) (male Sprague-Dawley rats [2]; [4]): 14.3 ± 1.26 s
- % WL (mean ± S.E.M.), percentage of weight borne on the burn-injured left hind paw (male Sprague-Dawley rats [3]; 3 h after administration, 30 mg/kg): 42.6 ± 2.14% and 46.8 ± 2.17%
- % WL (mean ± S.E.M.), percentage of weight borne on the burn-injured left hind paw (male Sprague-Dawley rats [3]; 5 h after administration, 30 mg/kg): 43.7 ± 2.38% and 48.2 ± 2.54%
- % WL (mean ± S.E.M.), percentage of weight borne on the burn-injured left hind paw (male Sprague-Dawley rats [3]; baseline (prior to drug administration), 30 mg/kg): 49.1 ± 0.53% and 50.4 ± 0.54%

Structure (SMILES): CC(=O)Nc1nc2c(Oc3cc(-c4ccc(C(F)(F)F)cc4)ncn3)cccc2s1 [AMG 517]
- % Decrease from Baseline (mean ± S.E.M.) of Paw Withdrawal Threshold (male Sprague-Dawley rats [1]; 1 h after administration): 61 ± 2.3%
- Paw Withdrawal Threshold (g) (mean ± S.E.M.) (male Sprague-Dawley rats [1]; 1 h after administration): 94 ± 5.3 g
- % Decrease from Baseline (mean ± S.E.M.) of Paw Withdrawal Threshold (male Sprague-Dawley rats [1]; 3 h after administration): 52 ± 4.3%
- Paw Withdrawal Threshold (g) (mean ± S.E.M.) (male Sprague-Dawley rats [1]; 3 h after administration): 115 ± 10.8 g
- % Decrease from Baseline (mean ± S.E.M.) of Paw Withdrawal Threshold (male Sprague-Dawley rats [1]; 5 h after administration): 65 ± 2.9%
- Paw Withdrawal Threshold (g) (mean ± S.E.M.) (male Sprague-Dawley rats [1]; 5 h after administration): 86 ± 7.7 g
- Paw Withdrawal Threshold (g) (mean ± S.E.M.) (male Sprague-Dawley rats [1]; [4]): 242 ± 6.0 g
- % Change from Baseline (mean ± S.E.M.) of Paw Withdrawal Latency (male Sprague-Dawley rats [2]; 1 h after administration): −50.1 ± 25.49%
- Paw Withdrawal Latency (sec) (mean ± S.E.M.) (male Sprague-Dawley rats [2]; 1 h after administration): 8.6 ± 0.91 s
- % Change from Baseline (mean ± S.E.M.) of Paw Withdrawal Latency (male Sprague-Dawley rats [2]; 3 h after administration): −27.1 ± 16.54%
- Paw Withdrawal Latency (sec) (mean ± S.E.M.) (male Sprague-Dawley rats [2]; 3 h after administration): 11.8 ± 0.66 s
- % Change from Baseline (mean ± S.E.M.) of Paw Withdrawal Latency (male Sprague-Dawley rats [2]; 5 h after administration): −24.8 ± 15.95%
- Paw Withdrawal Latency (sec) (mean ± S.E.M.) (male Sprague-Dawley rats [2]; 5 h after administration): 12.1 ± 0.60 s
- Paw Withdrawal Latency (sec) (mean ± S.E.M.) (male Sprague-Dawley rats [2]; [4]): 14.4 ± 1.35 s
- % WL (mean ± S.E.M.), percentage of weight borne on the burn-injured left hind paw (male Sprague-Dawley rats [3]; 1 h after administration): 39.2 ± 4.30 %
- % WL (mean ± S.E.M.), percentage of weight borne on the burn-injured left hind paw (male Sprague-Dawley rats [3]; 3 h after administration): 43.1 ± 2.82%
- % WL (mean ± S.E.M.), percentage of weight borne on the burn-injured left hind paw (male Sprague-Dawley rats [3]; 5 h after administration): 43.0 ± 3.37%
- % WL (mean ± S.E.M.), percentage of weight borne on the burn-injured left hind paw (male Sprague-Dawley rats [3]; [4]): 49.4 ± 0.44%
